Experimental findings from US20170037446A1, “METHOD FOR THE MICROBIOLOGICAL DETERMINATION OF TRACES OF A[…] LOW VOLUME BIOLOGICAL SAMPLES” (UNIVERSIDAD DE SANTIAGO DE CHILE, priority 2013, published 2017) are described below.

The nature of this series: Pharmacokinetic study of minocycline in CSF of rats, quantified by the microbiological method with 4PL curve fit. It is filed as in vivo. The settings on record: normal Sprague-Dawley rats, intra CSF injection of 1 mg/mL MC solution. Here is the method:
A curve representing the percentage of bacterial growth inhibition versus antibiotic concentration applied to each well was also obtained.. Subsequently, using a curve fit analysis called “Four Parameter Curve Logistic (4PL)”, the values of antibiotic concentrations in the biological sample were obtained.
Cerebrospinal fluid (CSF) collection: It was collected by transcutaneous cisternal magna puncture. Minocycline injections were performed by the same route.
Curve fitting: Four Parameter Logistic Curve (4PL) analysis was applied to minocycline antibiotic obtained from FIG. 1:
Minocycline (MC), an antibiotic belonging to the family of tetracyclines, was used to carry out pharmacokinetic studies of CSF in Sprague-Dawley rats. Briefly, normal rats were injected via intra CSF an MC solution of 1 mg/mL, for subsequent sampling of CSF at time zero, 1, 10 and 18 hours. […] At 18 hours it is still possible to detect a concentration of 69 ng/mL (FIG. 4).

`CN(C)c1ccc(O)c2c1C[C@H]1C[C@H]3[C@H](N(C)C)C(O)=C(C(N)=O)C(=O)[C@@]3(O)C(O)=C1C2=O` [Minocycline]: the “detection of MC in CSF” value (CSF sampled at time zero, 1, 10 and 18 hours) is reported as “detected at all times”. This compound also yielded a concentration at 18 h (rat, cerebrospinal fluid (CSF), other: intra CSF (transcutaneous cisternal magna puncture), CSF sampled at 18 hours (FIG. 4)) of 69 ng/mL.
